Experimental data: patent US20240316059A1, “PEPTIDE DRUG CONJUGATES” (Oncopeptides AB, priority 2021, published 2024)
pIC50: −log10 of the molar value.

System: MM.1S cells
Test: In vitro cytotoxic potency in MM.1S cell viability assay (CellTiter-Glo)
Assay type: cell-based, human
Conditions: 72 h, CellTiter-Glo 2.0; read-out: MM.1S IC50
Method: Methods: MM.1S Cells were cultivated in RPMI medium 1640 (IX) supplemented with 10 μg/μL penicillin/streptomycin, 10% heat inactivated FBS, 0.1 mM Sodium Pyruvate, 1×MEM NEAA (ThermoFisher) and 1 mM HEPES. Cells were grown to reach log phase before being exposed to the test compounds.
(§1) Test compounds (Example compounds 1 to 36, 38 to 41 and 45 to 48) and comparative compounds (bendamustine, busulfan, melphalan, chlorambucil and 4-hydroperoxy cyclophosphamide) were dissolved in 100% DMSO and added to a 384 assay plate. Additional DMSO was added to maintain the same final DMSO concentration (0.2%) in all wells. 25 μL cell suspension with a concentration of 100000 cells/mL was added to each well. The cells were cultured in a CO2 incubator at 37° C. for 72 h. Plates were equilibrated to room temperature for 30 minutes before adding 20 μL CellTiter-Glo® 2.0 (Promega) reagent to all wells. The plate was then allowed to stabilize for 20 minutes before recording the luminescence (emission filter 700 nm) in an Envision plate reader.
All cells were cultivated in RPMI medium 1640 (IX). All media was supplemented with 10 μg/μl penicillin/streptomycin, 10% heat inactivated FBS, 0.1 mM Sodium Pyruvate, 1×MEM NEAA (ThermoFisher) and 1 mM HEPES. The DERL-2 cells had higher FBS (20%) and 40 ng/mL IL-2 was added. hPBMCs were thawed and allowed to acclimatise overnight and then stimulated with 10 μg/mL PHA-M and 40 ng/mL IL-2 for 4 hours before being exposed to test compounds. All cells, except for hPBMCs, were grown to reach log phase before being exposed to the test compounds.
as §1, with “compounds” for “compounds (Example compounds 1 to 36, 38 to 41 and 45 to 48) and comparative compounds (bendamustine, busulfan, melphalan, chlorambucil and 4-hydroperoxy cyclophosphamide)”, “(Em” for “(emission”

Row | Structure (SMILES) | pIC50
1 | O=P1(N(CCCl)CCCl)NC(OO)CCO1 (centres unmarked) [4-hydroperoxy cyclophosphamide, reference compound] | 5.14

Same assay, conditions: Homo sapiens, MM1.S, 72 h, read-out: MM.1S IC50

Row | Structure (SMILES) | pIC50
2 | O=C(O)CCCc1ccc(N(CCCl)CCCl)cc1 [Chlorambucil, chlorambucil, reference compound] | 5.16
3 | CCOC(=O)[C@@H](NC(=O)[C@@H](N)CCc1nc2cc(N(CCCl)CCCl)ccc2n1C)C(C)C [Example 3, Ethyl (2S)-2-[[(2S)-2-amino-4-[5-[bis(2-chloroethyl)amino]-1-methyl-benzimidazol-2-yl]butanoyl]amino]-3-methyl-butanoate] | 8.17
4 | CCOC(=O)[C@H](CC(C)C)NC(=O)[C@@H](N)Cc1nc2cc(N(CCCl)CCCl)ccc2n1C [Example 4, Ethyl (2S)-2-[[(2S)-2-amino-3-[5-[bis(2-chloroethyl)amino]-1-methyl-benzimidazol-2-yl]propanoyl]amino]-4-methyl-pentanoate] | 8.18
5 | CCOC(=O)[C@H](Cc1ccc(F)cc1)NC(=O)[C@@H](N)Cc1nc2cc(N(CCCl)CCCl)ccc2n1C [Example 5, Ethyl (2S)-2-[[(2S)-2-amino-3-[5-[bis(2-chloroethyl)amino]-1-methyl-benzimidazol-2-yl]propanoyl]amino]-3-(4-fluorophenyl)propanoate] | 7.65
6 | CCOC(=O)[C@@H](NC(=O)[C@@H](N)Cc1nc2cc(N(CCCl)CCCl)ccc2n1C)C(C)C [Example 6, Ethyl (2S)-2-[[(2S)-2-amino-3-[5-[bis(2-chloroethyl)amino]-1-methyl-benzimidazol-2-yl]propanoyl]amino]-3-methyl-butanoate] | 7.01
7 | CCOC(=O)[C@H](CCc1nc2cc(N(CCCl)CCCl)ccc2n1C)NC(=O)[C@@H](N)CC(C)C [Example 7, Ethyl (2S)-2-[[(2S)-2-amino-4-methyl-pentanoyl]amino]-4-[5-[bis(2-chloroethyl)amino]-1-methyl-benzimidazol-2-yl]butanoate] | 7.64
8 | CCOC(=O)[C@H](CCc1nc2cc(N(CCCl)CCCl)ccc2n1C)NC(=O)[C@@H](N)Cc1ccc(F)cc1 [Example 8, Ethyl (2S)-2-[[(2S)-2-amino-3-(4-fluorophenyl)propanoyl]amino]-4-[5-[bis(2-chloroethyl)amino]-1-methyl-benzimidazol-2-yl]butanoate] | 7.84
9 | CCOC(=O)[C@H](CCc1nc2cc(N(CCCl)CCCl)ccc2n1C)NC(=O)[C@@H](N)C(C)C [Example 9, Ethyl (2S)-2-[[(2S)-2-amino-3-methyl-butanoyl]amino]-4-[5-[bis(2-chloroethyl)amino]-1-methyl-benzimidazol-2-yl]butanoate] | 7.65
10 | CCOC(=O)[C@H](Cc1nc2cc(N(CCCl)CCCl)ccc2n1C)NC(=O)[C@@H](N)Cc1ccc(F)cc1 [Example 11, Ethyl (2S)-2-[[(2S)-2-amino-3-(4-fluorophenyl)propanoyl]amino]-3-[5-[bis(2-chloroethyl)amino]-1-methyl-benzimidazol-2-yl]propanoate] | 7.83
11 | CCOC(=O)[C@H](Cc1nc2cc(N(CCCl)CCCl)ccc2n1C)NC(=O)[C@@H](N)C(C)C [Example 12, Ethyl (2S)-2-[[(2S)-2-amino-3-methyl-butanoyl]amino]-3-[5-[bis(2-chloroethyl)amino]-1-methyl-benzimidazol-2-yl]propanoate] | 7.90
12 | COC(=O)[C@H](CC(C)C)NC(=O)[C@@H](N)Cc1nc2cc(N(CCCl)CCCl)ccc2n1C [Example 14, Methyl (2S)-2-[[(2S)-2-amino-3-[5-[bis(2-chloroethyl)amino]-1-methyl-benzimidazol-2-yl]propanoyl]amino]-4-methyl-pentanoate] | 8.06
13 | CC(C)C[C@H](NC(=O)[C@@H](N)Cc1nc2cc(N(CCCl)CCCl)ccc2n1C)C(=O)OC(C)C [Example 15, Isopropyl (2S)-2-[[(2S)-2-amino-3-[5-[bis(2-chloroethyl)amino]-1-methyl-benzimidazol-2-yl]propanoyl]amino]-4-methyl-pentanoate] | 8.04
14 | CCOC(=O)[C@H](CCc1nc2cc(N(CCCl)CCCl)ccc2n1C)NC(=O)[C@H](CC(C)C)NC(=O)[C@@H](N)Cc1ccc(F)cc1 [Example 16, Ethyl (2S)-2-[[(2S)-2-[[(2S)-2-amino-3-(4-fluorophenyl)propanoyl]amino]-4-methyl-pentanoyl]amino]-4-[5-[bis(2-chloroethyl)amino]-1-methyl-benzimidazol-2-yl]butanoate] | 7.60
15 | Cn1c(C[C@H](N)C(=O)O)nc2cc(N(CCCl)CCCl)ccc21 [Example 17, (2S)-2-amino-3-[5-[bis(2-chloroethyl)amino]-1-methyl-benzimidazol-2-yl]propanoic acid] | 4.40
16 | CC(C)[C@H](NC(=O)[C@@H](N)CCc1nc2cc(N(CCCl)CCCl)ccc2n1C)C(=O)O [Example 19, (2S)-2-[[(2S)-2-amino-4-[5-[bis(2-chloroethyl)amino]-1-methyl-benzimidazol-2-yl]butanoyl]amino]-3-methyl-butanoic acid] | 5.40
17 | CCOC(=O)[C@H](CCc1nc2cc(N(CCCl)CCCl)ccc2n1C)NC(=O)[C@@H](CC(C)C)NC(=O)[C@@H](N)Cc1ccc(F)cc1 [Example 21, Ethyl (2S)-2-[[(2R)-2-[[(2S)-2-amino-3-(4-fluorophenyl)propanoyl]amino]-4-methyl-pentanoyl]amino]-4-[5-[bis(2-chloroethyl)amino]-1-methyl-benzimidazol-2-yl]butanoate] | 7.58
18 | CCOC(=O)[C@H](Cc1ccc(F)cc1)NC(=O)[C@H](CC(C)C)NC(=O)[C@@H](N)CCc1nc2cc(N(CCCl)CCCl)ccc2n1C [Example 22, Ethyl (2S)-2-[[(2S)-2-[[(2S)-2-amino-4-[5-[bis(2-chloroethyl)amino]-1-methyl-benzimidazol-2-yl]butanoyl]amino]-4-methyl-pentanoyl]amino]-3-(4-fluorophenyl)propanoate] | 7.50
19 | CCOC(=O)[C@H](CC(C)C)NC(=O)[C@H](CC(C)C)NC(=O)[C@@H](N)CCc1nc2cc(N(CCCl)CCCl)ccc2n1C [Example 23, Ethyl (2S)-2-[[(2S)-2-[[(2S)-2-amino-4-[5-[bis(2-chloroethyl)amino]-1-methyl-benzimidazol-2-yl]butanoyl]amino]-4-methyl-pentanoyl]amino]-4-methyl-pentanoate] | 7.38
20 | CC(C)C[C@H](NC(=O)[C@@H](N)CCc1nc2cc(N(CCCl)CCCl)ccc2n1C)C(=O)OCCN1CCOCC1 [Example 24, 2-Morpholinoethyl (2S)-2-[[(2S)-2-amino-4-[5-[bis(2-chloroethyl)amino]-1-methyl-benzimidazol-2-yl]butanoyl]amino]-4-methyl-pentanoate] | 6.81
21 | CC(C)C[C@H](NC(=O)[C@@H](N)CCc1nc2cc(N(CCCl)CCCl)ccc2n1C)C(=O)OCCOC(C)C [Example 25, 2-Isopropoxyethyl (2S)-2-[[(2S)-2-amino-4-[5-[bis(2-chloroethyl)amino]-1-methyl-benzimidazol-2-yl]butanoyl]amino]-4-methyl-pentanoate] | 7.73
22 | CC(C)C[C@H](NC(=O)[C@@H](N)CCc1nc2cc(N(CCCl)CCCl)ccc2n1C)C(=O)OC(C)C [Example 26, Isopropyl (2S)-2-[[(2S)-2-amino-4-[5-[bis(2-chloroethyl)amino]-1-methyl-benzimidazol-2-yl]butanoyl]amino]-4-methyl-pentanoate] | 8.17

Same assay, conditions: Homo sapiens, MM1.S; 72 h, CellTiter-Glo 2.0; read-out: MM.1S IC50

Row | Structure (SMILES) | pIC50
23 | CS(=O)(=O)OCCCCOS(C)(=O)=O [Busulfan, busulfan, reference compound] | 3.74
